Molecules are shown by their SMILES.

The first experiment deals with T1, human DGAT1 (Homo sapiens, UniProt O75907).
T1 sequence (O75907 1-488): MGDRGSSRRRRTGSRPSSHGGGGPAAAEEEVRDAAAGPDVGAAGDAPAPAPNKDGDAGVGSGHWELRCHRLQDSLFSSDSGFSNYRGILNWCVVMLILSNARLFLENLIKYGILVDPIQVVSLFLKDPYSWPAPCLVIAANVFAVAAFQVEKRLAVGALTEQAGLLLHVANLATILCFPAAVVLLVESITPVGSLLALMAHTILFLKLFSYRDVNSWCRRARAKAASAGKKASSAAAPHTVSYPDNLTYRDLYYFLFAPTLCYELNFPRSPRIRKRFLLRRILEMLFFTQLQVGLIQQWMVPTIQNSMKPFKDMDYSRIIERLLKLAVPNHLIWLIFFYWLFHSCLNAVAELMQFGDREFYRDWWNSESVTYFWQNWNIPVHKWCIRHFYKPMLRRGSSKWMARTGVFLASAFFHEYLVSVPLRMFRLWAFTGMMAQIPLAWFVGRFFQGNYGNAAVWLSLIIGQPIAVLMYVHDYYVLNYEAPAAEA
The experiment is described as follows: DGAT1 CPM Assay. It counts as biochemical. The note with it: human DGAT1, CPM fluorescence, 1 hour incubation at room temperature. How it is done: 20 uL of 90 uM CPM reagent in 90% ethanol was added after 1 hour incubation at room temperature.
With `C[C@]1(C(=O)O)CC[C@H](OC2CCN(c3ccc(-c4nc5ccc(F)cc5[nH]4)cn3)CC2)CC1` [Example 99], the IC50 worked out at 9 nM.

Consider `C[C@]1(C(=O)O)CC[C@H](OC2CCN(c3ccc(-c4nc5ccc(C(F)(F)F)cc5[nH]4)cn3)CC2)CC1` [Example 100], for which the IC50 was found to be 2 nM.

`C[C@]1(C(=O)O)CC[C@H](OC2CCN(c3ccc(-c4nc5ccccc5[nH]4)cn3)CC2)CC1` [Example 101] showed an IC50 of 27 nM. Against the preceding compound, the IC50 is about 14-fold higher.

`C[C@]1(C(=O)O)CC[C@H](OC2CCN(c3ccc(-c4nc5ccc(Cl)cc5[nH]4)cn3)CC2)CC1` [Example 102] registered a half-inhibitory concentration (IC50) of 4 nM. This IC50 is about 6.8-fold lower than that of the compound before.

Consider `C[C@]1(C(=O)O)C[C@H](OC2CCN(c3ccc(-c4nc5cc(C(F)(F)F)ccc5[nH]4)cn3)CC2)C1` [Example 103], for which half-maximal inhibition (IC50) required 4 nM.

For `C[C@]1(C(=O)O)C[C@@H](OC2CCN(c3ccc(-c4nc5cc(C(F)(F)F)ccc5[nH]4)cn3)CC2)C1` [Example 104], inhibition was half-maximal at 6 nM (IC50).

Compound `C[C@]1(C(=O)O)CC[C@@H](OC2CCN(c3ccc(-c4nc5ccccc5[nH]4)cn3)CC2)CC1` [Example 105, cis-4-({1-[5-(1H-benzimidazol-2-yl)pyridin-2-yl}piperidin-4-yl]oxy)-1-methylcyclohexanecarboxylic acid] displayed a half-inhibitory concentration (IC50) of 44 nM.

For the compound `C[C@]1(C(=O)O)CC[C@@H](OC2CCN(c3ccc(-c4nc5cc(F)c(F)cc5[nH]4)cn3)CC2)CC1` [Example 106], the midpoint of inhibition, the IC50, lay at 15 nM.

For `C[C@]1(C(=O)O)CC[C@@H](OC2CCN(c3ccc(-c4nc5ncc(C(F)(F)F)cc5[nH]4)cn3)CC2)CC1` [Example 107], the IC50 amounted to 48 nM. This IC50 is about 3.2-fold higher than that of the compound before.

Regarding `C[C@]1(C(=O)O)CC[C@@H](OC2CCN(c3ccc(-c4nc5ncc(Cl)cc5[nH]4)cn3)CC2)CC1` [Example 108], half-maximal inhibition (IC50) was put at 125 nM.

In turn, `C[C@]1(C(=O)O)CC[C@@H](OC2CCN(c3ccc(-c4nc5cc(Cl)c(Cl)cc5[nH]4)cn3)CC2)CC1` [Example 109] yielded an IC50 of 2 nM.

`Cc1ccc2[nH]c(-c3ccc(N4CCC(O[C@H]5CC[C@@](C)(C(=O)O)CC5)CC4)nc3)nc2n1` [Example 110] yielded a half-maximal inhibitory concentration (IC50) of 425 nM.

Consider `C[C@]1(C(=O)O)CC[C@@H](OC2CCN(c3ccc(-c4nc5cc(F)ccc5[nH]4)cn3)CC2)CC1` [Example 111], for which the concentration for half-maximal inhibition (IC50) was found to be 21 nM.

`COC(=O)c1cccc(OC2CCN(c3ccc(-c4nc5cc(C(F)(F)F)ccc5[nH]4)cn3)CC2)c1` [Example 113, Methyl 3-[(1-{5-[5-(trifluoromethyl)-1H-benzimidazol-2-yl]pyridin-2-yl}piperidin-4-yl)oxy]benzoate] yielded an IC50 of 520 nM.

The compound `O=C(O)c1cccc(OC2CCN(c3ccc(-c4nc5cc(C(F)(F)F)ccc5[nH]4)cn3)CC2)c1` [Example 114, 3-[(1-{5-[5-(trifluoromethyl)-1H-benzimidazol-2-yl]pyridin-2-yl}piperidin-4-yl)oxy]benzoic acid] yielded a concentration for half-maximal inhibition (IC50) of 9 nM.

`O=C(O)c1cncc(OC2CCN(c3ccc(-c4nc5cc(C(F)(F)F)ccc5[nH]4)cn3)CC2)c1` [Example 115, 5-[(1-{5-[5-(trifluoromethyl)-1H-benzimidazol-2-yl]pyridin-2-yl}piperidin-4-yl)oxy]pyridine-3-carboxylic acid] returned an IC50 of 28 nM.

`COC(=O)c1cccc(COC2CCN(c3ccc(-c4nc5cc(C(F)(F)F)ccc5[nH]4)cn3)CC2)c1` [Example 116] registered a concentration for half-maximal inhibition (IC50) of 99 nM.

`O=C(O)c1cccc(COC2CCN(c3ccc(-c4nc5cc(C(F)(F)F)ccc5[nH]4)cn3)CC2)c1` [Example 117] registered an IC50 of 4 nM.

`O=C1CN([C@H]2CC[C@H](OC3CCN(c4ccc(-c5nc6cc(C(F)(F)F)ccc6[nH]5)cn4)CC3)CC2)S(=O)(=O)N1` [Example 118] gave an IC50 of 5 nM.

In the case of `O=C1CN([C@H]2CC[C@H](OC3CCN(c4ccc(-c5nc6cc(F)c(F)cc6[nH]5)cn4)CC3)CC2)S(=O)(=O)N1` [Example 119], the concentration for half-maximal inhibition (IC50) was 4 nM. This IC50 and that of the compound before are within 1.5-fold of each other.

Regarding `COc1ccc2nc(-c3ccc(N4CCC(O[C@H]5CC[C@H](N6CC(=O)NS6(=O)=O)CC5)CC4)nc3)[nH]c2n1` [Example 120], the concentration for half-maximal inhibition (IC50) was found to be 29 nM.

On to `O=C1CN([C@H]2CC[C@@H](OC3CCN(c4ccc(-c5nc6ccccc6[nH]5)cn4)CC3)CC2)S(=O)(=O)N1` [Example 121], for which the IC50 was determined as 45 nM.

Take `O=C1CN([C@H]2CC[C@@H](OC3CCN(c4ccc(-c5nc6cc(F)c(F)cc6[nH]5)cn4)CC3)CC2)S(=O)(=O)N1` [Example 122]: the IC50 amounted to 10 nM.

`O=C(O)c1ccc(OC2CCN(c3ccc(-c4nc5ccc(C(F)(F)F)cc5[nH]4)cn3)CC2)nc1` [Example 123]: 2 nM corresponded to half-maximal inhibition (IC50). Against the preceding compound, the IC50 is about 5-fold lower.

`O[C@@H]1CO[C@H]2[C@@H]1OC[C@@H]2OC1CCN(c2ccc(-c3nc4cc(F)ccc4[nH]3)cn2)CC1` [Example 125]: the IC50 stood at 64 nM. This IC50 is about 32-fold higher than that of the compound before.

The compound `O=C(O)c1ncc(OC2CCN(c3ccc(-c4nc5cc(Cl)ccc5[nH]4)cn3)CC2)cn1` [Example 127, 5-(1-(5-(5-chloro-1H-benzo[d]imidazol-2-yl)pyridin-2-yl)piperidin-4-yloxy)pyrimidine-2-carboxylic acid] had an IC50 of 100 nM.

The compound `O=C(O)c1cncc(OC2CCN(c3ccc(-c4nc5cc(Cl)ccc5[nH]4)cn3)CC2)c1` [Example 128] had an IC50 of 324 nM. Against the preceding compound, the IC50 is about 3.2-fold higher.

`O=C(O)Cc1ccc(OC2CCN(c3ccc(-c4nc5cc(Cl)ccc5[nH]4)cn3)CC2)cc1` [Example 129] showed an IC50 of 1 nM.

`O=C(O)c1cc(OC2CCN(c3ccc(-c4nc5cc(Cl)ccc5[nH]4)cn3)CC2)no1` [Example 130]: the half-maximal inhibitory concentration (IC50) stood at 15 nM.

As for `O=C(O)c1ccc(OC2CCN(c3ccc(-c4nc5cc(Cl)ccc5[nH]4)cn3)CC2)cc1` [Example 131], the concentration for half-maximal inhibition (IC50) is 2 nM.

For `O=C(O)c1cccc(OC2CCN(c3ccc(-c4nc5cc(Cl)ccc5[nH]4)cn3)CC2)c1` [Example 132], the concentration for half-maximal inhibition (IC50) is 2 nM.

As to `O=C(O)[C@H]1[C@@H]2C[C@H](OC3CCN(c4ccc(-c5nc6cc(C(F)(F)F)ccc6[nH]5)cn4)CC3)C[C@@H]21` [Example 133, (1R,3R,5S,6r)-3-[(1-{5-[5-(trifluoromethyl)-1H-benzimidazol-2-yl]pyridin-2-yl}piperidin-4-yl)oxy]bicyclo[3.1.0]hexane-6-carboxylic acid], half-maximal inhibition (IC50) required 2 nM.

`O=C(O)[C@H]1[C@@H]2C[C@@H](OC3CCN(c4ccc(-c5nc6cc(C(F)(F)F)ccc6[nH]5)cn4)CC3)C[C@@H]21` [Example 134] yielded an IC50 of 4 nM.

Turning to `O=C(O)[C@@H]1[C@@H]2C[C@H](OC3CCN(c4ccc(-c5nc6cc(C(F)(F)F)ccc6[nH]5)cn4)CC3)C[C@@H]21` [Example 135], half-maximal inhibition (IC50) required 11 nM. This IC50 lies about 2.8-fold higher than the previous one.

`O=C(O)[C@@H]1[C@@H]2C[C@@H](OC3CCN(c4ccc(-c5nc6cc(C(F)(F)F)ccc6[nH]5)cn4)CC3)C[C@@H]21` [Example 136] displayed a half-maximal inhibitory concentration (IC50) of 6 nM. This IC50 lies about 1.8-fold lower than the previous one.

For `O=C(O)C[C@H]1CC[C@H](O[C@H]2CCN(c3ccc(-c4nc5cc(F)ccc5[nH]4)cn3)C2)CC1` [Example 138], the half-maximal inhibitory concentration (IC50) was found to be 45 nM.

The target in another experiment is T2, human DGAT1 enzyme expressed in Sf9 insect cells prepared as microsomes (Homo sapiens, UniProt O75907).
T2 construct: made in house; host or cells: Sf9 insect cells (microsomes)
T2 sequence (O75907 1-488): T1 sequence (O75907 1-488)
Nature of the experiment: in vitro assay to identify DGAT1 inhibitors ([14C]-palmitoyl-CoA, wheat germ agglutinin beads, TopCount). It counts as biochemical. The note with it: 2 hours at room temperature. How it is done:
If compounds 141-162 were assayed they were assayed as follows: the in vitro assay to identify DGAT1 inhibitors uses human DGAT1 enzyme expressed in Sf9 insect cells prepared as microsomes. The reaction is initiated by the addition of the combined substrates 1,2-dioleoyl-sn-glycerol and [^14C]-palmitoyl-Co A and incubated with test compounds and microsomal membranes for 2 hours at room temperature. The assay is stopped by adding 0.5 mg wheat germ agglutinin beads in assay buffer with 1% Brij-35 and 1% 3-cholamidopropyldimethyl-ammonio-1-propane sulfonate. Plates are sealed with TopSeal and incubated for 18 hours to allow the radioactive triglyceride product to come into proximity with the bead. Plates are read on a TopCount instrument.
Percent inhibition was calculated as the percent of (test compound inhibition minus non-specific binding) relative to (total binding minus non-specific binding). IC50 values were determined by curve fitting the data to a Sigmoidal dose-response in GraphPad Prism utilizing the following equation:
Y=A+(B−A)/(1+10̂((Log IC50−X))),
where A and B are the bottom and top of the curve (highest and lowest inhibition), respectively, and X is the logarithm of concentration.
`COC(=O)c1cccc(OCC2CCN(c3ccc(-c4nc5cc(C(F)(F)F)ccc5[nH]4)cn3)CC2)c1` [Example 141, methyl 3-[[1-[5-[5-(trifluoromethyl)-1H-benzol[d]imidazol-2-yl]pyridine-2-yl]piperidin-4-yl]methoxy]benzoate] displayed an IC50 of 2500 nM.

Take `O=C(O)c1cccc(OCC2CCN(c3ccc(-c4nc5cc(C(F)(F)F)ccc5[nH]4)cn3)CC2)c1` [Example 142, 3-[[1-[5-[5-(trifluoromethyl)-1H-benzol[d]imidazol-2-yl]pyridine-2-yl]piperidin-4-yl]methoxy]benzoic acid]: the IC50 was 13 nM.

`COC(=O)c1cccc(OCC2CCN(c3ccc(-c4nc5cc(Cl)ccc5[nH]4)cn3)CC2)c1` [Example 143] registered an IC50 of 1830 nM.

`O=C(O)c1cccc(OCC2CCN(c3ccc(-c4nc5cc(Cl)ccc5[nH]4)cn3)CC2)c1` [Example 144]: half-maximal inhibition (IC50) required 8 nM.

In turn, `O=C(O)c1cc(OCC2CCN(c3ccc(-c4nc5cc(Cl)ccc5[nH]4)cn3)CC2)cc(C(=O)O)c1` [Example 146, 5-((1-(5-(5-chloro-1H-benzo[d]imidazol-2-yl)pyridin-2-yl)piperidin-4-yl)methoxy)isophthalic acid] had a half-maximal inhibitory concentration (IC50) of 18 nM.

In turn, `O=C(O)c1cc(F)ccc1OCC1CCN(c2ccc(-c3nc4cc(Cl)ccc4[nH]3)cn2)CC1` [Example 148, 2-[[1-[5-(6-chloro-1H-benzimidazol-2-yl)-2-pyridinyl]-4-piperidinyl]methoxy]-5-fluorobenzoic acid] had an IC50 of 1070 nM.

Broadly, the IC50 is the concentration that inhibits the measured activity by half. The low end stands for greater potency in that assay, the high end for weaker potency in that assay.

For the origin of these results see patent US20140088124A1, “IMIDAZOLE DERIVATIVES” (priority 2011, published 2014).
